29 compounds from patent US20040002425A1, “Triketone derivatives and herbicides” (Idemitsu Kosan Co., Ltd., priority 1998, published 2004) can be followed below.

For the series, the system named is Transplanted paddy rice plant. Description: Biological Test 1 (treatment on the 3rd day after transplantation): chemical injury to paddy rice. The format is in vivo. Conditions: Treatment performed 3 days after transplantation. More on the design: scale not given here. On the procedure:
(1) Preparation of Herbicide
Talc (57 parts by weight) and bentonite (40 parts by weight), both serving as carriers, and sodium alkylbenzenesulfate (3 parts by weight) serving as a surfactant were homogeneously ground and mixed to thereby obtain a carrier for water-dispersible powder.
Subsequently, to the water-dispersible powder (90 parts by weight), the triketone derivative (compound No. A-1) produced in Example I-1 (10 parts by weight) was added, and the resultant mixture was homogeneously ground and mixed to thereby obtain a herbicide.
(i) Biological Test 1 (Soaking in Water/Treatment on the 3rd Day After Transplantation)
A Wagner pot (1/2000 are) was filled with paddy soil, and seeds of barnyard grass were planted on the surface layer of the soil, and further, rice seedlings grown to the 2.5-leaf stage were transplanted.
Subsequently, water was poured in the pot to a height of 3 cm above the soil surface, and placed in a greenhouse where the temperature was maintained at 20-25° C., to thereby grow the plant under suitable conditions.
On the 3rd day after transplantation, the herbicide prepared in (1) above was applied to the plant in a predetermined amount. On the 30th day after treatment with the herbicide, weed-killing ratio, herbicidal effect, and extent of chemical injury to paddy rice were examined.
In Biological tests 1 and 2, herbicidal effect and extent of chemical injury were evaluated according to the below-described standards.
3) Chemical Injury to Paddy Rice
Chemical injury to paddy rice was evaluated according to the following criteria.

The mark [1] stands for this setting: dose 100 g/ha, examined on the 30th day after treatment.
Setting [2] is: dose 200 g/ha, examined on the 30th day after treatment.

In the case of `CCCCS(=O)(=O)C1=C(C(=O)c2ccc3c(c2Cl)CCS3(=O)=O)C(=O)CCC1` [B-30], the “Chemical injury, Transplanted paddy rice plant” value (“Chemical injury” for short) amounted to 0 (dose 100 g/ha) and 0 (dose 200 g/ha).
For `CC(C)c1ccccc1SC1=C(C(=O)c2ccc3c(c2Cl)CCS3(=O)=O)C(=O)CCC1` [B-18], the “Chemical injury” value is, setting by setting: (dose 100 g/ha) 0; (dose 200 g/ha) 0.
Turning to `CCCCSC1=C(C(=O)c2ccc3c(c2Cl)CCS3(=O)=O)C(=O)CCC1` [B-10], the “Chemical injury” value turned out to be 0 (dose 100 g/ha) and 0 (dose 200 g/ha).
For `O=C1CCCC(S(=O)(=O)c2ccccc2)=C1C(=O)c1ccc2c(c1Cl)CCS2(=O)=O` [B-31], the “Chemical injury” value is 0 (dose 100 g/ha) and 0 (dose 200 g/ha).
Consider `CO/N=C1\CCS(=O)(=O)c2ccc(C(=O)C3=C(Cl)CCCC3=O)c(C)c21` [B-72], for which the “Chemical injury” value (dose 100 g/ha) stood at 0 and the “Chemical injury” value (dose 200 g/ha) amounted to 0.
Consider `Cc1c(C(=O)C2=C(O)CCCC2=O)ccc2c1CCS2(=O)=O` [A-2, 4-methyl-5-(1,3-dioxocyclohexan-2-yl)carbonyl-2,3-dihydrobenzothiophene-1,1-dioxide], for which the “Chemical injury” value runs as follows: under setting [1], 0; under setting [2], 0.
As for `CC(C)(C)S(=O)(=O)C1=C(C(=O)c2ccc3c(c2Cl)CCS3(=O)=O)C(=O)CCC1` [B-39], the “Chemical injury” value reads like this: (dose 100 g/ha) 0; (dose 200 g/ha) 0.
Take `COc1ccc(S(=O)(=O)C2=C(C(=O)c3ccc4c(c3Cl)CCS4(=O)=O)C(=O)CCC2)cc1` [B-37]: the “Chemical injury” value came out at 0 (dose 100 g/ha) and 0 (dose 200 g/ha).
For `CCCSC1=C(C(=O)c2cc(C)c3c(c2C)/C(=N/OC)CCS3(=O)=O)C(=O)CCC1` [B-61, 4-methoxyimino-5,8-dimethyl-6-[3-(3-propyl)thio-1-oxocyclohexan-2-yl)carbonylthiochroman-1,1-1,1-dioxide], the “Chemical injury” value is 0 (dose 100 g/ha) and 0 (dose 200 g/ha).
Turning to `O=C1CCCC(S(=O)(=O)c2ccc(O)cc2)=C1C(=O)c1ccc2c(c1Cl)CCS2(=O)=O` [B-43], the “Chemical injury” value reads like this: (dose 100 g/ha) 0; (dose 200 g/ha) 0.
Regarding `CC(C)SC1=C(C(=O)c2ccc3c(c2Cl)CCS3(=O)=O)C(=O)CCC1` [B-9], the “Chemical injury” value reads like this: (dose 100 g/ha) 0; (dose 200 g/ha) 0.
As to `N#Cc1c(C(=O)C2C(=O)CCCC2=O)ccc2c1CCS2(=O)=O` [A-21, 4-cyano-5-(1,3-dioxocyclohexan-2-yl)carbonyl-2,3-dihydrobenzothiophene-1,1-dioxide], the “Chemical injury” value under setting [1] was 0 and the “Chemical injury” value under setting [2] stood at 0.
As to `Cc1cccc(S(=O)(=O)C2=C(C(=O)c3ccc4c(c3Cl)CCS4(=O)=O)C(=O)CCC2)c1` [B-33], the “Chemical injury” value by setting is: (dose 100 g/ha) 0; (dose 200 g/ha) 0.
In the case of `O=C1CCCC([O-])=C1C(=O)c1ccc2c(c1Cl)CCS2(=O)=O.[Na+]` [A-19, Sodium Salt of 4-chloro-5-(1,3-dioxocyclohexan-2-yl)carbonyl-2,3-dihydrobenzothiophene-1,1-dioxide], the “Chemical injury” value is given as 0 under setting [1] and 1 under setting [2].
For `COC(=O)c1ccccc1SC1=C(C(=O)c2ccc3c(c2Cl)CCS3(=O)=O)C(=O)CCC1` [B-19], the “Chemical injury” value is given as 0 (dose 100 g/ha) and 0 (dose 200 g/ha).
As for `CCCS(=O)(=O)C1=C(C(=O)c2ccc3c(c2Cl)CCS3(=O)=O)C(=O)CCC1` [B-28], the “Chemical injury” value is, setting by setting: (dose 100 g/ha) 0; (dose 200 g/ha) 0.
For the compound `CCS(=O)(=O)C1=C(C(=O)c2ccc3c(c2Cl)CCS3(=O)=O)C(=O)CCC1` [B-27], the “Chemical injury” value runs as follows: (dose 100 g/ha) 0; (dose 200 g/ha) 0.
With `Cc1c(C(=O)C2=C(S(=O)(=O)c3ccc(Cl)cc3)CCCC2=O)ccc2c1C(=O)C(C)(C)CS2(=O)=O` [B-65], the “Chemical injury” value is listed as 3 (dose 100 g/ha) and 4 (dose 200 g/ha).
In the case of `O=C1CCCC(Sc2ccccc2Cl)=C1C(=O)c1ccc2c(c1Cl)CCS2(=O)=O` [B-17], the “Chemical injury” value is, setting by setting: (dose 100 g/ha) 0; (dose 200 g/ha) 0.
Turning to `O=C1CCCC(Cl)=C1C(=O)c1ccc2c(c1Cl)CCS2(=O)=O` [B-1], the “Chemical injury” value runs as follows: (dose 100 g/ha) 0; (dose 200 g/ha) 0.
On to `O=C1CCCC(O)=C1C(=O)c1cccc2c1OCCO2` [Comparative Example I-2, reference compound], for which the “Chemical injury” value by setting is: under setting [1], 0; under setting [2], 0.
Take `CSC1=C(C(=O)c2cc(C)c3c(c2C)C(OC(C)C)CCS3(=O)=O)C(=O)CCC1` (stereo not shown) [B-67]: the “Chemical injury” value reads like this: (dose 100 g/ha) 0; (dose 200 g/ha) 1.
`O=C1CCCC(O)=C1C(=O)c1ccc2c(c1Cl)CCS2(=O)=O` [A-1, 4-chloro-5-(1,3-dioxocyclohexan-2-yl)carbonyl-2,3-dihydrobenzothiophene-1,1-dioxide]: the “Chemical injury” value was 0 under setting [1] and 0 under setting [2].
For the compound `CC1Cc2c(ccc(C(=O)C3=C(O)CCCC3=O)c2Cl)S1(=O)=O` (stereo not shown) [A-17, 4-chloro-2-methyl-5-(1,3-dioxocyclohexan-2-yl)carbonyl-2,3-dihydrobenzothiophene-1,1-dioxide], the “Chemical injury” value amounted to 0 under setting [1] and 1 under setting [2].
Turning to `O=C1CCCC(Sc2ccccc2)=C1C(=O)c1ccc2c(c1Cl)CCS2(=O)=O` [B-3], the “Chemical injury” value (dose 100 g/ha) was 0 and the “Chemical injury” value (dose 200 g/ha) is 0.
Consider `CC1(C)CC(=O)C(C(=O)c2ccc3c(c2Cl)CCS3(=O)=O)=C(O)C1` [A-9, 4-chloro-5-(5,5-dimethyl-1,3-dioxocyclohexan-2-yl)carbonyl-2,3-dihydrobenzothiophene-1,1-dioxide], for which the “Chemical injury” value reads like this: under setting [1], 1; under setting [2], 3.
Turning to `Cc1c(C(=O)C2=C(Cl)CCCC2=O)ccc2c1C(=O)C(C)(C)CS2(=O)=O` [B-63], the “Chemical injury” value runs as follows: (dose 100 g/ha) 3; (dose 200 g/ha) 5.
Consider `CC1CC(C)C(O)=C(C(=O)c2ccc3c(c2Cl)CCS3(=O)=O)C1=O` (stereo not shown) [A-14, 4-chloro-5-(4,6-dimethyl-1,3-dioxocyclohexan-2-yl)carbonyl-2,3-dihydrobenzothiophene-1,1-dioxide], for which the “Chemical injury” value by setting is: under setting [1], 1; under setting [2], 2.
On the same counts, the results for `CC1CC(O)=C(C(=O)c2ccc3c(c2Cl)CCS3(=O)=O)C(=O)C1C` (stereo not shown) [A-16, 4-chloro-5-(4,5-dimethyl-1,3-dioxocyclohexan-2-yl)carbonyl-2,3-dihydrobenzothiophene-1,1-dioxide] are 1 and 3.
